This passage reports RP-LC retention time results from the METLIN SMRT retention time set (Domingo-Almenara et al. 2019).

The data set in a line: gradient 5% acetonitrile 3 min, to 50% in 2 min, to 85% in 15 min, held 3 min, 100 µL/min. The settings on record: column: Zorbax Extend-C18 2.1 x 50 mm; eluents: water / acetonitrile, 0.1% formic acid. The gist of the method:
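The system's dead and dwell volumes were 40 μL and 900 μL, with a Zorbax Extend-C18 column (2.1 × 50 mm, 1.8 μm) run at 100 μL/min in water and acetonitrile containing 0.1% formic acid each. Pure standards were analyzed in mixtures of ~100 molecules by HPLC–quadrupole time-of-flight mass spectrometry in positive and negative ionization mode. Retention time was assigned from computationally picked, manually inspected adduct peaks.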
As to `COc1ccc(CN2C(=O)CN(C3CCCCC3)C(=O)C2c2cccs2)cc1` (centres undefined), the RP-LC retention time turned out to be 915 s. Under `Cc1ccc(-c2cc3c(=O)n(Cc4noc(CN5CCCCCCC5)n4)ccn3n2)cc1` stands 757 s; under `CCCCn1c(=O)c2ccccc2n(Cc2nc(-c3ccc(C)c(C)c3)no2)c1=O`, 1290 s. Under `Cn1c(=O)sc2cc(S(=O)(=O)N3CCC(C(=O)Nc4ccc(Cl)cc4)CC3)ccc21` stands 926 s; under `CC1CCCN(c2ccn3c(=O)n(CC(=O)Nc4ccc(F)c(Cl)c4)nc3n2)C1` (centres undefined), 834 s; under `O=C(N[C@H]1C[C@@H]2C[C@H]1N(C(=O)Cc1c(F)cccc1Cl)C2)c1ccccc1`, 827 s. Under `CCOc1ccc(S(=O)(=O)Nc2cc(-c3cn4ccc(C)cc4n3)ccc2C)cc1` stands 718 s.

The compound `COc1cc(OC)c(NC(=O)c2cc3c(n(-c4ccc(F)cc4)c2=O)CCCC3=O)cc1Cl` displayed an RP-LC retention time of 970 s. Under `CN1CC(=O)N(CC(=O)Nc2ccc(Cl)c(C(F)(F)F)c2)c2ccccc2C1=O` stands 826 s. For `COc1ccc(-c2nnc(-c3cccc(S(=O)(=O)N4CCC(C)CC4)c3)o2)cc1`, the RP-LC retention time is 1110 s. As to `COc1cccc(CNC(=O)N2CCCC(C)(C(=O)NCc3ccc(F)cc3)C2)c1` (centres undefined), the RP-LC retention time was 815 s.

With `CCc1cc(=O)n(CC(=O)Nc2ccc(OC)cc2)c(N)n1`, the RP-LC retention time came to 595 s. With `Cc1cc(N2CCCCC2)nc(N2CCN(C(=O)c3ccc(-c4ccccc4)cc3)CC2)n1` the figure was 837 s; with `CCn1cc(C(=O)Nc2ccccc2C)c2cccnc21`, 791 s; with `CC(=O)c1cccc(NC(=O)CN2CCCN(Cc3cccc(F)c3)S2(=O)=O)c1`, 880 s. As for `O=C(NCCN1CCCCC1)C1CCCN(c2cnc3nccnc3c2)C1` (centres undefined), the RP-LC retention time came to 562 s. With `O=C(c1ccoc1)N1CCCC1c1nc(C2CCOCC2)no1` (centres undefined) the figure was 670 s; with `O=c1n(Cc2ccccc2Cl)nc2ccc(S(=O)(=O)N3CCOCC3)cn12`, 824 s; with `CCc1ccc(NC(=O)Cn2nc3n(c2=O)CCCCC3)cc1`, 709 s. With `CNC(=O)[C@@H]1CN(S(=O)(=O)c2cnc[nH]2)C[C@H]1c1n[nH]c(C)n1` the figure was 530 s. With `CCOc1ccc(NC(=O)C2CCCN(c3nnc4cccc(C)n34)C2)cc1` (centres undefined) the figure was 724 s; with `O=C(C1CC1)N1CCc2sc(S(=O)(=O)NCc3ccccc3F)cc2C1`, 815 s; with `COc1ccc(NC(=O)c2cn3c(n2)CCCC3)c(OC)c1`, 610 s. Consider `O=C(NC1CCN(c2cc(-c3ccc(F)cc3)[nH]n2)CC1)C1COc2ccccc2O1` (centres undefined), for which the RP-LC retention time was determined as 824 s.

Compound `COc1cccc(NC(=O)Cn2nc3c(Oc4cccc(F)c4)nccn3c2=O)c1` showed an RP-LC retention time of 839 s.

`Cc1ccc(Cl)cc1N1CCN(c2ccc3cc(S(=O)(=O)N4CCCCC4)ccc3n2)CC1`: the RP-LC retention time came out at 1000 s.

Compound `COC(=O)c1ccc(CSc2nnc(NC(=O)c3snnc3C)s2)o1` registered an RP-LC retention time of 743 s. Under `O=C(CN1C(=O)NC2(CCCCC2)C1=O)Nc1ccccc1Cl` stands 764 s; under `CCC(=O)N1CCc2cc(N3CC(C(=O)NC(C)CC)CC3=O)ccc21` (centres undefined), 669 s. For `COc1ccc(-c2nc(-c3nnn(-c4ccccc4)c3C)no2)c(OC)c1`, the RP-LC retention time amounted to 1000 s. With `Cc1ccc(CNC(=O)c2cc3sccc3n2Cc2ccc(Cl)cc2)cc1` the figure was 1200 s; with `CN1CCN(C(=O)c2ccc(S(=O)(=O)c3ccccc3)s2)CC1`, 605 s; with `O=c1ccn(-c2cccc(F)c2)nc1-c1nc(-c2ccc(F)c(Br)c2)no1`, 1040 s. On to `O=C(NCC1CCCO1)N1CCN(c2nc3ccccc3n(Cc3ccccc3)c2=O)CC1` (centres undefined), for which the RP-LC retention time came out at 850 s. Under `CC1=CC2(C)NC(=O)C(C)C12` (centres undefined) stands 710 s.

`CC(=O)c1ccc(NC(=O)CN2C(=O)CCn3nc(-c4cn(C)c5ccccc45)cc32)cc1`: the RP-LC retention time was 791 s. Under `CCCc1cc(N2CCN(c3ccccn3)CC2)n2ncc(-c3ccccc3)c2n1` stands 886 s; under `Cc1cc(C)c(S(=O)(=O)N2CCCC2c2nc(-c3ccc(Cl)cc3)no2)cc1C` (centres undefined), 1340 s.

Turning to `Cc1c(C(=O)Nc2ccc(N3CCC(N4CCOCC4)CC3)c(C#N)c2)cnn1-c1ccc(Cl)cc1`, the RP-LC retention time is 800 s. With `Cc1nc2cc(-c3noc(COc4ccc(F)cc4)n3)ccc2o1` the figure was 994 s; with `O=C(NCc1ccco1)c1cccc2c1CCN2C(=O)c1ccc(F)cc1`, 836 s. Under `CCn1cnc(S(=O)(=O)N2CCC(C(=O)NCc3ccc(OC)cc3)CC2)c1` stands 674 s. Under `COc1ccc(NC(=O)c2cn3c(n2)CSCC3)cc1F` stands 694 s; under `O=C(NCc1ccc(F)c(Cl)c1)C1CCN(c2cnc3nccnc3c2)CC1`, 757 s; under `CCCN(C(=O)c1ccccc1F)c1nc(-c2ccc(C)cc2)cs1`, 1410 s. The compound `CCc1nnc(C2CCN(C(=O)c3cc(C)on3)CC2)s1` yielded an RP-LC retention time of 624 s. With `O=C(Cc1ccc(Cl)cc1)N1CCCN(C2CCN(CC3CC3)C2=O)CC1` (centres undefined) the figure was 581 s; with `CCc1nn2c(CNC(=O)c3ccoc3)c(-c3ccccc3)nc2s1`, 808 s.

Compound `Cn1nc(-c2nc(-c3ccc(F)cc3)no2)c2c1CCN(C(=O)NC1CCCCC1)C2` showed an RP-LC retention time of 979 s.

In the case of `CCOc1ccc(OCC)c(NC(=O)CSc2nccnc2Oc2ccccc2)c1`, the RP-LC retention time was 1190 s. As for `CCCOc1ccc(C(=O)N(Cc2ccc(Br)o2)C2CCS(=O)(=O)C2)cc1` (centres undefined), the RP-LC retention time amounted to 1010 s.

With `COc1ccc(C)c2sc(NC(=O)c3cc(C)no3)nc12`, the RP-LC retention time came out at 800 s. `Cc1cccc(-c2noc(Cc3nnc(-c4ccc(C)c(C)c4)o3)n2)c1` yielded an RP-LC retention time of 1190 s. With `O=C(c1cccc(Br)c1)N1CCN(C(=O)N2CCOCC2)CC1` the figure was 631 s; with `c1cnc(N2CCN(c3nn4nnnc4c4ccccc34)CC2)nc1`, 807 s; with `COc1ccccc1N1CCN(C(=O)Cn2ncc3c(c2=O)N(C)C(=O)CS3)CC1`, 661 s. Under `COc1ccc(-c2nc3cc(C)ccn3c2NC(=O)CC(C)C)cc1` stands 628 s; under `Cc1ccc2[nH]c(=O)c(CCC(=O)NCCCN3CCCC3=O)cc2c1`, 608 s. Under `CCOC(=O)c1c(S(=O)(=O)N2CCC(C(=O)Nc3ccccc3OC)CC2)c(C)n(C)c1C` stands 850 s; under `COc1ccccc1Nc1nc(-c2ccc(Br)cc2)cs1`, 1340 s. The compound `Cc1nc2cccnc2n1C1CCN(C(=O)Nc2ccc3c(c2)OCO3)CC1` showed an RP-LC retention time of 613 s.

Consider `CCN1CCn2cc(S(=O)(=O)Nc3ccc(OC)c(Cl)c3)cc2C1=O`, for which the RP-LC retention time turned out to be 730 s. The compound `Cn1c(=O)c2ccn(CC(=O)Nc3cccc(C(F)(F)F)c3)c2n(C)c1=O` had an RP-LC retention time of 705 s. With `CCOc1ccc2cccc(NC(=O)c3cc(C)oc3C)c2n1` the figure was 1310 s. In turn, `CC(C)(C)n1nnnc1C1CC2(CCOCC2)C(=O)N1CCc1nc2ccccc2[nH]1` (centres undefined) had an RP-LC retention time of 604 s. Under `CC(NC(=O)c1c(O)c2sccc2n(Cc2ccccc2)c1=O)c1ccccc1` (centres undefined) stands 1350 s; under `O=C(NC1CCCC1)C1CCN(c2ncccc2-c2nc(-c3ccc(Cl)cc3)no2)CC1`, 1130 s. Under `CC(C)CCNC(=O)C1CCCN(c2ncnc3c2oc2ccccc23)C1` (centres undefined) stands 786 s; under `Cc1ccc(C(=O)N(CC(=O)N(Cc2ccco2)CC2CCCO2)C(C)(C)C)cc1` (centres undefined), 907 s; under `CC(=O)N1CCCSc2ccc(S(=O)(=O)N3CCN(c4cc(Cl)ccc4C)CC3)cc21`, 1180 s. Under `CCOC(=O)c1ccccc1NC(=O)Cn1c(-c2ccc(F)cc2)nc(C)cc1=O` stands 1320 s; under `O=C(c1ccc2c(c1)OCO2)N1C[C@@H](CO)[C@H](c2ccncc2)C1`, 558 s; under `Cc1ccc(NC(=O)N2CCC(N3CCN(Cc4ccccn4)C(=O)C3=O)CC2)cc1`, 604 s. `CCn1ccc2c(cc(C(=O)Nc3cc(Cl)c(OC)cc3OC)n2C)c1=O` showed an RP-LC retention time of 810 s. Under `O=S(=O)(c1ccc2nncn2c1)N(Cc1ccc(F)cc1)c1ccc(F)cc1` stands 861 s.

`COc1ccc(OC)c(NC(=O)N2C[C@@H](F)C[C@H]2C(=O)N2CCCCC2)c1` registered an RP-LC retention time of 720 s. Under `COc1cccc(-c2ccnc3nc(Cc4cc(F)cc(F)c4)nn23)c1` stands 945 s; under `COCCC(=O)N1CCCN(C2=NS(=O)(=O)C(c3ccc(F)cc3)=C2C)CC1`, 697 s. Under `CCc1noc(NC(C)=O)c1-c1ccc(C)c(S(=O)(=O)Nc2cccc(C#N)c2)c1` stands 776 s.
